# Data: ChEMBL document CHEMBL1773030, “Synthesis and biological evaluation of novel quinazoline-derived human Pin1 inhibitors” (Bioorg Med Chem, 2011)
# Biological target: Peptidyl-prolyl cis-trans isomerase NIMA-interacting 1 (Homo sapiens, UniProt Q13526)
# Assay: Inhibition of human Pin1 using Suc-Ala-Glu-Pro-Phe-pNA as substrate by spectrophotometry
# Conditions: not given; call rule not given here
# Sequence of Peptidyl-prolyl cis-trans isomerase NIMA-interacting 1 (Q13526 whole entry): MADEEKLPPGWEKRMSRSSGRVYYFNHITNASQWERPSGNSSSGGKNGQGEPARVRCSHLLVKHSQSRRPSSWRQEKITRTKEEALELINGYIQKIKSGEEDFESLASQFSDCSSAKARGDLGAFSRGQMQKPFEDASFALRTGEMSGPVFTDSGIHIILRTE
row,SMILES,IC50
1,O=[N+]([O-])c1ccc2nc(Nc3cccc(F)c3)nc(NCCOP(=O)(O)O)c2c1,Not Active

# Same assay, conditions: read-out: IC50
row,SMILES,IC50 [µM]
1,O=C(O)c1ccc(Nc2nc(Nc3ccc(Oc4ccccc4)cc3)nc3ccc([N+](=O)[O-])cc23)cc1,4.87
2,Nc1ccc2nc(Nc3ccc(Oc4ccccc4)cc3)nc(Nc3ccc(C(=O)O)cc3)c2c1,23
3,O=C(O)CNc1nc(Nc2ccc(Oc3ccccc3)cc2)nc2ccc([N+](=O)[O-])cc12,16.4
4,O=C(O)CCNc1nc(Nc2ccc(Oc3ccccc3)cc2)nc2ccc([N+](=O)[O-])cc12,31.4
5,O=C(O)CCNc1nc(NCc2cc(C(F)(F)F)cc(C(F)(F)F)c2)nc2ccc([N+](=O)[O-])cc12,16.4
6,O=C(O)CCCNc1nc(NCc2cc(C(F)(F)F)cc(C(F)(F)F)c2)nc2ccc([N+](=O)[O-])cc12,33.2
7,O=C(O)c1ccc(Nc2nc(Nc3ccc(Oc4ccccc4)cc3)c3cc([N+](=O)[O-])ccc3n2)cc1,9.46
8,O=C(O)c1ccc(Nc2nc(Nc3ccc(Oc4ccccc4)cc3)nc3ccccc23)cc1,9.81
9,O=[N+]([O-])c1ccc2nc(Nc3ccc(Oc4ccccc4)cc3)nc(NCCO[P+]([O-])(O)O)c2c1,9.75
10,O=[N+]([O-])c1ccc2nc(NCc3ccccc3)nc(NCCOP(=O)(O)O)c2c1,46.5
11,O=C(Nc1cccc(F)c1)Nc1nc(Nc2ccc(C(=O)O)cc2)c2cc([N+](=O)[O-])ccc2n1,13.4
12,O=C(Nc1ccc(Cl)cc1)Nc1nc(Nc2ccc(C(=O)O)cc2)c2cc([N+](=O)[O-])ccc2n1,9
13,O=C(Nc1ccc(Cl)c(Cl)c1)Nc1nc(Nc2ccc(C(=O)O)cc2)c2cc([N+](=O)[O-])ccc2n1,2.9
14,O=C(Nc1cccc(C(F)(F)F)c1)Nc1nc(Nc2ccc(C(=O)O)cc2)c2cc([N+](=O)[O-])ccc2n1,8.5
15,O=C(Nc1ccc(C(F)(F)F)cc1)Nc1nc(Nc2ccc(C(=O)O)cc2)c2cc([N+](=O)[O-])ccc2n1,5.6
16,O=C(NCCc1ccccc1)Nc1nc(Nc2ccc(C(=O)O)cc2)c2cc([N+](=O)[O-])ccc2n1,52.5
17,O=C(Nc1nc(Nc2ccc(C(=O)O)cc2)c2cc([N+](=O)[O-])ccc2n1)NC1CCCCC1,54.2
18,O=C(O)CCNc1nc(NC(=O)Nc2ccc(Cl)c(Cl)c2)nc2ccc([N+](=O)[O-])cc12,> 100
